{
  "source": "patent US10105331B2",
  "about": "“Substituted aromatic compounds and pharmaceutical compositions for the prevention and treatment of diabetes” (PROMETIC PHARMA SMT LIMITED, priority 2014, dated 2018)",
  "key": {"[1]": {"tested_on": "uninephrectomized db/db mice", "assay": "Diabetic mouse (db/db) model, uninephrectomized: blood glucose, insulin, glucose/insulin ratio, islet insulin staining", "type": "in vivo", "settings": "for blood glucose level: 105 days", "method": "(§1) Male Lepr db (db/db) and age- and sex-matched control mice with the same genetic background (C57BL/6) were used. Animals were randomized using blood sugar measurement (5-hours starved) at week 6 and uninephrectomy (removal of right kidney) was performed. Sham animals (C57BL/6) underwent exposition of the right kidney. Animals that underwent the sham operation were given vehicle (saline) and were used as negative controls. C57BL/6 mice that were uninephrectomized were given vehicle and were used as positive controls. Db/db mice were treated with oral administration of compound I at 10 and 50 mg/kg per day for 105 days. Serum glucose was measured every two to four weeks."}, "β-TC-6 cells": {"tested_on": "β-TC-6 cells", "assay": "Glucose-induced insulin secretion by β-TC-6 cells (insulin ELISA of supernatants)", "type": "cell-based", "settings": "for % Control (insulin secretion, individual values) / Average % Control (insulin secretion): β-TC-6 cells; for Insulin: glucose-induced insulin secretion by β-TC-6 cells, stimulation of 11 mM glucose, control 53", "method": "β-TC-6 cells where used to determine if compounds according to the present invention were able to induce the production of insulin with or without stimulation with glucose. Briefly, β-TC-6 cells (200,000 cells/ml) were incubated in DMEM media and 15% heat inactivated serum in presence of absence of glucose (0.8M) with/without Compound I for 30 minutes and further incubated for 2 hours with a solution of Krebs containing 2.5, 11 and 25 mM glucose. Supernatants were collected and used for the detection of insulin (ELISA) performed as recommended by the supplier."}, "[2]": {"tested_on": "uninephrectomized db/db mice", "assay": "Blood triglycerides level in serum of uninephrectomized db/db mice", "type": "in vivo", "settings": "10 or 50 mg/kg", "method": "as §1\nIt is known that blood triglycerides is often associated with diabetes. High triglyceride levels in the blood tend to coexist with low levels of HDL (“good”) cholesterol, contributing to a condition called diabetic dyslipidemia. It is also known that a combination of high triglycerides, low HDL and central obesity are the hallmarks of the metabolic syndrome, which occurs in a majority people with type 2 diabetes."}, "[3]": {"settings": "50 mg/kg per day oral, NX db/db mice"}, "[4]": {"settings": "uninephrectomized db/db mice, dose not stated in legend"}, "[5]": {"settings": "glucose 11 mM, Compound I 40 μM"}, "[6]": {"settings": "glucose 11 mM, Compound I 80 μM"}},
  "note": "Several values for one entry are separate records, joined by “and”; a condition that tells them apart may be missing. Equal entries are not always repeated.",
  "data": [
    {"compound": "CCCCCc1cc(CCCCC)cc(CC(=O)[O-])c1.[Na+]", "note": "[Compound I, Sodium 2-[3,5-Dipentylphenyl]acetate]", "values": [
      {"measurement": "blood glucose level", "setting": "[1]; 10 mg/kg per day oral, compared to NX db/db", "value": "reduces blood glucose compare to NX db/db but stay stable over time"},
      {"measurement": "insulin level", "setting": "[1]; 10 mg/kg per day oral, NX db/db mice", "value": "keeps a high insulin level (stabilization compare to Day 0)"},
      {"measurement": "blood glucose level", "setting": "[1]; [3]", "value": "induces a significant decrease in blood glucose to a normal level"},
      {"measurement": "insulin level", "setting": "[1]; [3]", "value": "reduces the insulin level close to a normal level"},
      {"measurement": "histoimmunostaining of insulin in the pancreatic islets", "setting": "[1]; both concentrations (10 or 50 mg/kg), db/db Nx mice", "value": "reverses the loss of insulin detection"},
      {"measurement": "glucose/insulin ratio (insulin resistance)", "setting": "[1]; day 33, uninephrectomized db/db mice", "value": "reduces the glucose/insulin ratio"},
      {"measurement": "glucose/insulin ratio (insulin resistance)", "setting": "[1]; day 105, uninephrectomized db/db mice", "value": "reduces the glucose/insulin ratio"},
      {"measurement": "blood glucose level (FIG. 1 legend)", "setting": "[1]; [4]", "value": "reduces blood glucose level down to normal level"},
      {"measurement": "insulin secretion (FIG. 2 legend)", "setting": "[1]; [4]", "value": "reverses the fall of insulin secretion"},
      {"measurement": "% Control (insulin secretion, individual values)", "setting": "β-TC-6 cells; [5]", "value": "195.41 % Control and 187.16 % Control and 135.78 % Control and 149.35 % Control and 151.88 % Control and 143.13 % Control"},
      {"measurement": "Average % Control (insulin secretion)", "setting": "β-TC-6 cells; [5]", "value": 160.45, "unit": "% Control"},
      {"measurement": "% Control (insulin secretion, individual values)", "setting": "β-TC-6 cells; [6]", "value": "192.66 % Control and 174.31 % Control and 203.67 % Control and 145.51 % Control and 129.29 % Control and 200.78 % Control"},
      {"measurement": "Average % Control (insulin secretion)", "setting": "β-TC-6 cells; [6]", "value": 174.37, "unit": "% Control"},
      {"measurement": "Insulin", "setting": "β-TC-6 cells", "value": 76, "unit": "ng/mL"},
      {"measurement": "% Control (insulin secretion, individual values)", "setting": "β-TC-6 cells; no glucose, Compound I 40 μM", "value": "53.76 % Control and 86.02 % Control and 47.31 % Control and 155.22 % Control and 135.63 % Control and 130.81 % Control"},
      {"measurement": "Average % Control (insulin secretion)", "setting": "β-TC-6 cells; no glucose, Compound I 40 μM", "value": 101.46, "unit": "% Control"},
      {"measurement": "% Control (insulin secretion, individual values)", "setting": "β-TC-6 cells; no glucose, Compound I 80 μM", "value": "79.57 % Control and 38.71 % Control and 70.97 % Control and 123.28 % Control and 114.63 % Control and 177.33 % Control"},
      {"measurement": "Average % Control (insulin secretion)", "setting": "β-TC-6 cells; no glucose, Compound I 80 μM", "value": 100.75, "unit": "% Control"},
      {"measurement": "glucose-induced insulin production in β-TC-6 cells", "setting": "β-TC-6 cells; with or without glucose", "value": "increased with Compound I in presence of glucose only"},
      {"measurement": "blood triglyceride level in serum", "setting": "[2]", "value": "reduced the blood triglyceride level"},
      {"measurement": "melting point", "value": "225 to 230", "unit": "°C"}
    ]},
    {"compound": "CCCCCCc1cc(CCCCCC)cc(CC(=O)[O-])c1.[Na+]", "note": "[Compound II, Sodium Salt of 2-(3,5-Dihexylphenyl)acetic acid]", "values": [
      {"measurement": "Insulin", "setting": "β-TC-6 cells", "value": 123, "unit": "ng/mL"}
    ]},
    {"compound": "CCCCCc1cc(CCCCC)c(O)c(CC(=O)[O-])c1.[Na+]", "note": "[Compound III, Sodium Salt of 2-(2-Hydroxy-3,5-dipentylphenyl)acetic acid]", "values": [
      {"measurement": "Insulin", "setting": "β-TC-6 cells", "value": 109, "unit": "ng/mL"}
    ]},
    {"compound": "CCCCCCc1cc(CCCCCC)c(O)c(CC(=O)[O-])c1.[Na+]", "note": "[Compound IV, Sodium Salt of 2-(3,5-Dihexyl-2-hydroxyphenyl)acetic acid]", "values": [
      {"measurement": "Insulin", "setting": "β-TC-6 cells", "value": 147, "unit": "ng/mL"}
    ]},
    {"compound": "CCCCCc1cc(CCCCC)c(Cc2ccccc2)c(CC(=O)[O-])c1.[Na+]", "note": "[Compound IX, Sodium Salt of 2-(2-Benzyl-3,5-dipentylphenyl)acetic Acid]", "values": [
      {"measurement": "Insulin", "setting": "β-TC-6 cells", "value": 110, "unit": "ng/mL"}
    ]},
    {"compound": "CCCCCc1cc(CC(=O)[O-])cc(CCCCC)c1O.[Na+]", "note": "[Compound V, Sodium Salt of 2-(4-Hydroxy-3,5-dipentylphenyl)acetic acid]", "values": [
      {"measurement": "Insulin", "setting": "β-TC-6 cells", "value": 59, "unit": "ng/mL"}
    ]},
    {"compound": "CCCCCCc1cc(CC(=O)[O-])cc(CCCCCC)c1O.[Na+]", "note": "[Compound VI, Sodium Salt of 2-(3,5-Dihexyl-4-hydroxyphenyl)acetic acid]", "values": [
      {"measurement": "Insulin", "setting": "β-TC-6 cells", "value": 67, "unit": "ng/mL"}
    ]},
    {"compound": "CCCCCc1cc(CC(=O)[O-])cc(CCCCC)c1F.[Na+]", "note": "[Compound VIII, Sodium Salt of 2-(4-Fluoro-3,5-dipentylphenyl)acetic acid]", "values": [
      {"measurement": "Insulin", "setting": "β-TC-6 cells", "value": 64, "unit": "ng/mL"}
    ]},
    {"compound": "CCC/C=C/c1cc(/C=C/CCC)cc(CC(=O)[O-])c1.[Na+]", "note": "[Compound X, Sodium 2-[3,5-Di[(E)-Pent-1-enyl]phenyl]acetate]", "values": [
      {"measurement": "Insulin", "setting": "β-TC-6 cells", "value": 102, "unit": "ng/mL"}
    ]},
    {"compound": "CCCCCc1cc(CCCCC)cc(CCC(=O)[O-])c1.[Na+]", "note": "[Compound XI, Sodium 3-[3,5-Dipentylphenyl]propanoate]", "values": [
      {"measurement": "Insulin", "setting": "β-TC-6 cells", "value": 89, "unit": "ng/mL"}
    ]},
    {"compound": "CCCC/C=C/c1cc(/C=C/CCCC)cc(CC(=O)[O-])c1.[Na+]", "note": "[Compound XII, Sodium Salt of 2-(3,5-Di((E)-hex-1-enyl)phenyl)acetic acid]", "values": [
      {"measurement": "Insulin", "setting": "β-TC-6 cells", "value": 70, "unit": "ng/mL"}
    ]}
  ]
}
